According to US20260042755A1, “GPR6 INVERSE AGONISTS” (MapLight Therapeutics, Inc., priority 2022, published 2026):
pIC50: −log10 of the molar value.

Assays:
GPR3 = molecular target: T1, GPR3 (Homo sapiens, UniProt P46089); test: GPR3 antagonist functional cAMP assay (LANCE Ultra cAMP TR-FRET, CHO cells stably expressing GPR3); format: cell-based; conditions: procedure of Example 24
T1 construct: expressed in transfected cells; host or cells: CHO cells
Procedure, shortened: (§1)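 We measure cAMP by TR-FRET (665 nm) in cells held in glucose-containing Krebs-Ringer buffer with BSA and a PDE inhibitor, after a 45 min, 37 °C compound incubation. IC50s derive from a four-parameter logistic fit.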

GPR6 = molecular target: T2, GPR6 (Homo sapiens, UniProt P46095); test: GPR6 antagonist functional cAMP assay (LANCE Ultra cAMP TR-FRET, CHO cells stably expressing GPR6); format: cell-based; conditions: procedure of Example 24
T2 construct: expressed in transfected cells; host or cells: CHO cells
T2 sequence (P46095 whole entry): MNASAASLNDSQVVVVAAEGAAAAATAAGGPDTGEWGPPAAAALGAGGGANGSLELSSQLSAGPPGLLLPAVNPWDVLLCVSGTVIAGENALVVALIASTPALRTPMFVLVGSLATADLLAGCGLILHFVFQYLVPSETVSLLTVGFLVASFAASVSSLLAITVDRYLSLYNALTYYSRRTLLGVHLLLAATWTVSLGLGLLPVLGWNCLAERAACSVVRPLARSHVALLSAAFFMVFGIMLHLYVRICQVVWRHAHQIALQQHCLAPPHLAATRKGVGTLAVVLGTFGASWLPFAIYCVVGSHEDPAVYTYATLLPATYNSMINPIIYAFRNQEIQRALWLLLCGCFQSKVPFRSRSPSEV
Procedure, shortened: as §1

T1 sequence (P46089 whole entry, species assumed): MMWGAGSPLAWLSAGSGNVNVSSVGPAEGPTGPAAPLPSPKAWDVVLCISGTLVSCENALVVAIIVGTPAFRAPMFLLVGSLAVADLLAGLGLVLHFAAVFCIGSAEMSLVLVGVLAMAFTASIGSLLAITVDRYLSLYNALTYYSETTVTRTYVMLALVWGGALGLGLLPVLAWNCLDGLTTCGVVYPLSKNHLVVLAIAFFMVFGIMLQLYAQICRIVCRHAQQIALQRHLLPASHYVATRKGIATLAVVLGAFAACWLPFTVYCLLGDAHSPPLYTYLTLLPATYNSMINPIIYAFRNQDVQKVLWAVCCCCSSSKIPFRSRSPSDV

| Compound | pIC50 (GPR3) | pIC50 (GPR6) |
| --- | --- | --- |
| Cn1cc(-c2nc3cc([C@](C)(O)CO)ncc3nc2N2CCC(Oc3ccc(F)cc3F)CC2)cn1 (single isomer, unassigned) [Compound 691] | 4.52 to 6.00 | 6.00 to 7.00 |
| Cn1cc(-c2nc3cc(C(C)(O)CO)ncc3nc2N2CCC(Oc3ccc(F)cc3F)CC2)cn1 (single isomer, unassigned) [Compound 692] | 4.52 to 6.00 | 6.00 to 7.00 |
| CC(C)(O)[C@](C)(O)c1cc2nc(N3CCN(Cc4ccc(F)cc4F)CC3)c(-c3cnn(C(F)F)c3)nc2cn1 (single isomer, unassigned) [Compound 694] | 4.52 to 6.00 | 6.00 to 7.00 |
| CC(C)(O)[C@@](C)(O)c1cc2nc(N3CCN(Cc4ccc(F)cc4F)CC3)c(-c3cnn(C(F)F)c3)nc2cn1 (single isomer, unassigned) [Compound 695] | 4.52 to 6.00 | 6.00 to 7.00 |
| CCn1cc(-c2nc3cnc([C@](C)(O)C(C)(C)O)cc3nc2N2CCN(Cc3ccc(F)cc3F)CC2)cn1 (single isomer, unassigned) [Compound 697] | 4.52 to 6.00 | 6.00 to 7.00 |
| CC(C)(O)C(C)(O)c1cc2nc(-c3cnn(C(F)F)c3)c(N3CCN(Cc4ccccc4F)CC3)nc2cn1 (single isomer, unassigned) [Compound 708] | 4.52 to 6.00 | 6.00 to 7.00 |
| CC(C)(O)C(C)(O)c1cc2nc(-c3cnn(C(F)F)c3)c(N3CCN(Cc4ccccc4F)CC3)nc2cn1 (single isomer, unassigned) [Compound 709] | 4.52 to 6.00 | 6.00 to 7.00 |
| CC(C)(O)[C@@](C)(O)c1cc2nc(-c3cnn(CF)c3)c(N3CCN(Cc4ccc(F)cc4F)CC3)nc2cn1 (single isomer, unassigned) [Compound 711] | 4.52 to 6.00 | 6.00 to 7.00 |
| CC(C)(O)[C@](C)(O)c1cc2nc(-c3cnn(CF)c3)c(N3CCN(Cc4ccc(F)cc4F)CC3)nc2cn1 (single isomer, unassigned) [Compound 712] | 4.52 to 6.00 | 6.00 to 7.00 |
| CC(C)(O)[C@@H](O)c1cc2nc(-c3cnn(CF)c3)c(N3CCN(Cc4ccccc4F)CC3)nc2cn1 (single isomer, unassigned) [Compound 713] | 4.52 to 6.00 | 6.00 to 7.00 |
| CC(C)(O)[C@@](C)(O)c1cc2nc(-c3cnn(CF)c3)c(N3CCN(Cc4ccccc4F)CC3)nc2cn1 (single isomer, unassigned) [Compound 715] | 4.52 to 6.00 | 6.00 to 7.00 |
| Cn1cc(-c2nc3cnc([C@@H](O)C(C)(C)O)cc3nc2N2CCC(=Cc3ccc(F)cc3F)CC2)cn1 (single isomer, unassigned) [Compound 719] | 4.52 to 6.00 | > 7.00 |
| Cn1cc(-c2nc3cnc([C@H](O)C(C)(C)O)cc3nc2N2CCC(=Cc3ccc(F)cc3F)CC2)cn1 (single isomer, unassigned) [Compound 720] | 4.52 to 6.00 | > 7.00 |
| CC(C)(O)C(C)(O)c1cc2nc(-c3cnn(C4CC4)c3)c(N3CCC(Oc4ccc(F)cc4F)CC3)nc2cn1 (single isomer, unassigned) [Compound 721] | 4.52 to 6.00 | 6.00 to 7.00 |
| CC(C)(O)C(C)(O)c1cc2nc(-c3cnn(C4CC4)c3)c(N3CCC(Oc4ccc(F)cc4F)CC3)nc2cn1 (single isomer, unassigned) [Compound 722] | 4.52 to 6.00 | 6.00 to 7.00 |
| CC(C)(O)C(O)c1cc2nc(-c3cnn(CF)c3)c(N3CCN(Cc4cc(F)ccc4F)CC3)nc2cn1 (single isomer, unassigned) [Compound 723] | 4.52 to 6.00 | 6.00 to 7.00 |
| CC(C)(O)[C@@H](O)c1cc2nc(-c3cnn(CF)c3)c(N3CCN(Cc4cc(F)ccc4F)CC3)nc2cn1 (single isomer, unassigned) [Compound 724] | 4.52 to 6.00 | 6.00 to 7.00 |
| CC(C)(O)[C@@H](O)c1cc2nc(N3CCN(Cc4cc(F)ccc4F)CC3)c(-c3cnn(CF)c3)nc2cn1 (single isomer, unassigned) [Compound 725] | ≤ 4.52 | 6.00 to 7.00 |

Continued, values first:

| pIC50 (GPR3) | pIC50 (GPR6) | Compound |
| --- | --- | --- |
| 4.52 to 6.00 | 6.00 to 7.00 | CC(C)(O)[C@H](O)c1cc2nc(N3CCN(Cc4cc(F)ccc4F)CC3)c(-c3cnn(CF)c3)nc2cn1 (single isomer, unassigned) [Compound 726] |
| 6.00 to 7.00 | 6.00 to 7.00 | CC(C)(O)[C@@H](O)c1cc2nc(N3CCC(Cc4ccc(F)cc4F)CC3)c(-c3cnn(CF)c3)nc2cn1 (single isomer, unassigned) [Compound 727] |
| 6.00 to 7.00 | > 7.00 | CC(C)(O)[C@H](O)c1cc2nc(N3CCC(Cc4ccc(F)cc4F)CC3)c(-c3cnn(CF)c3)nc2cn1 (single isomer, unassigned) [Compound 728] |
| 4.52 to 6.00 | 6.00 to 7.00 | CC(C)(O)[C@H](O)c1cc2nc(N3CCN(Cc4ccccc4F)CC3)c(-c3cnn(C4CC4)c3)nc2cn1 (single isomer, unassigned) [Compound 732] |
| 4.52 to 6.00 | 6.00 to 7.00 | COC(=O)[C@H]1C[C@@H]1c1cc2nc(N3CCC(Oc4ccc(F)cc4F)CC3)c(-c3cnn(C)c3)nc2cn1 (single isomer, unassigned) [Compound 733] |
| 4.52 to 6.00 | 6.00 to 7.00 | CCn1cc(-c2nc3cnc([C@](C)(O)C(C)(C)O)cc3nc2N2CCC(Oc3ccc(F)cc3F)CC2)cn1 (single isomer, unassigned) [Compound 735] |
| 4.52 to 6.00 | 6.00 to 7.00 | CCn1cc(-c2nc3cnc([C@@](C)(O)C(C)(C)O)cc3nc2N2CCC(Oc3ccc(F)cc3F)CC2)cn1 (single isomer, unassigned) [Compound 736] |
| 4.52 to 6.00 | 4.52 to 6.00 | Cn1cc(-c2nc3cnc([C@H]4C[C@@H]4C(=O)O)cc3nc2N2CCC(Oc3ccc(F)cc3F)CC2)cn1 (single isomer, unassigned) [Compound 737] |
| 4.52 to 6.00 | 6.00 to 7.00 | Cn1cc(-c2nc3cc([C@@](C)(O)C(C)(C)O)ncc3nc2N2CCC(Oc3ccc(F)cc3F)CC2)cn1 (single isomer, unassigned) [Compound 739] |
| 4.52 to 6.00 | 6.00 to 7.00 | CCn1cc(-c2nc3cc(C(C)(O)C(C)(C)O)ncc3nc2N2CCC(Oc3ccc(F)cc3F)CC2)cn1 (single isomer, unassigned) [Compound 740] |
| 4.52 to 6.00 | 6.00 to 7.00 | CCn1cc(-c2nc3cc(C(C)(O)C(C)(C)O)ncc3nc2N2CCC(Oc3ccc(F)cc3F)CC2)cn1 (single isomer, unassigned) [Compound 741] |
| 4.52 to 6.00 | 6.00 to 7.00 | CC(C)(O)[C@@H](O)c1cc2nc(N3CCN(Cc4ccccc4F)CC3)c(-c3cnn(C4CC4)c3)nc2cn1 (single isomer, unassigned) [Compound 742] |
| 4.52 to 6.00 | 6.00 to 7.00 | Cn1cc(-c2nc3cnc([C@H](O)C(C)(C)F)cc3nc2N2CCC(Oc3ccc(F)cc3F)CC2)cn1 (single isomer, unassigned) [Compound 743] |
| 4.52 to 6.00 | 6.00 to 7.00 | Cn1cc(-c2nc3cnc([C@@H](O)C(C)(C)F)cc3nc2N2CCC(Oc3ccc(F)cc3F)CC2)cn1 (single isomer, unassigned) [Compound 744] |
| 4.52 to 6.00 | 6.00 to 7.00 | CC(C)(O)[C@@H](O)c1cc2nc(-c3cnn(C4CC4)c3)c(N3CCN(Cc4ccccc4F)CC3)nc2cn1 (single isomer, unassigned) [Compound 746] |
| 4.52 to 6.00 | 6.00 to 7.00 | CC(C)(O)[C@@](C)(O)c1cc2nc(N3CCN(Cc4ccccc4F)CC3)c(-c3cnn(C4CC4)c3)nc2cn1 (single isomer, unassigned) [Compound 747] |
